Reference: patent US20220168198A1, “AN ANTIMICROBIAL MIXTURE” (SYMRISE AG, priority 2019, published 2022)

Columns and labels:
S. epidermitis = test: MIC determination (agar dilution or broth microdilution), activity against S. epidermitis; assay type: cell-based; design: unit not given beside the values; details: Comparison: MIC values for the actives taken alone
Description: (§1) Synergistic activity of mixtures of 4-Isopropyl-3-methylphenol an alpha bisabolol with regard to S. aureus and S. epidermidis was determined. […]
(§2) Antimicrobial activity was evaluated by determining the Minimum Inhibitory Concentration (MIC) representing the lowest concentration of a chemical which prevents visible growth of a bacterium.
(§3) The MIC values were determined by preparing solutions of the chemical in vitro at increasing concentrations, incubating the solutions with the separate batches of cultured bacteria, and measuring the results using agar dilution or broth microdilution. Results have been graded into susceptible (often called sensitive), intermediate, or resistant to a particular antibiotic by using a cutoff point. Cut off points are agreed upon values, published in guidelines of a reference body, such as the U.S. Clinical and Laboratory Standards Institute (CLSI), the British Society for Antimicrobial Chemotherapy (BSAC) or the European Committee on Antimicrobial Susceptibility Testing (EUCAST).

S. aureus = test: MIC determination (agar dilution or broth microdilution), activity against S. aureus; assay type: cell-based; design: unit not given beside the values; details: Comparison: MIC values for the actives taken alone
Description: as §1, §2, §3

[1] = tested on: mold growth on moist alfalfa hay; details: moist alfalfa hay preservation, Agronomy Journal 47, 64-69, 1955; cited from earlier work

Cc1cc(O)ccc1C(C)C [4-Isopropyl-3-methylphenol]
MIC (S. epidermitis): 250 | MIC (S. aureus): 250

CC(=O)c1ccc(O)cc1 [4-hydroxyacetophenone]
prevention of mold growth [1]: not prevent mold growth

CC(C)=CCC[C@](C)(O)[C@@H]1CC=C(C)CC1 [alpha-Bisabolol]
MIC (S. epidermitis): 125 | MIC (S. aureus): 125
